From US20080107619A1, “Carbohydrate based cellulase inhibitors as feeding stimulants in termites” (University of Florida Research Foundation, Inc., priority 2006, published 2008)
“Also recorded” adds a separate entry of the source.

System: R. flavipes worker termites
Assay: No-choice Petri dish in vivo feeding bioassay (feeding and mortality, 24 days)
Settings: for Average Feeding in mg per Live Termite (std. err.) days 1-8 / Average Feeding in mg per Live Termite (std. err.) days 9-16 / Average Feeding in mg per Live Termite (std. err.) days 17-24 / Normalized Avg. Totals: 1st ROUND (lab colony); for Normalized Avg. Totals: relative to control [0] average
Description: R. flavipes colonies were collected from the University of Florida campus during spring and summer 2006. Colonies were maintained in sealed plastic boxes (30×24×10 cm) at 22±1° C. and 69±1% RH. Colonies were maintained without soil and provisioned with moist brown paper towels and wood shims. Colonies that were acclimated under the above conditions for <2 months are referred to as “field colonies”, while those held for >6 months are referred to as “lab colonies”. Unless otherwise stated, all studies reported here were run with lab colonies.
Two different termite colonies were used. A lab colony was used in bioassays that tested the effects of CBI and FMG; this was the same colony used in cellulase optimization studies, cellulase distribution studies, and for […] determination. The other colony was a field colony, which was used to repeat the FMG assay along side FMCB. The no-choice feeding bioassay was derived from a previously-developed and slightly modified caste differentiation assay reported by M. E. Scharf, et al. in “Caste differentiation responses of two sympatric Reticulitermes termite species to juvenile hormone homologs and synthetic juvenoids in two laboratory assays.” Insectes Soc. […] Acad. Sci. USA, 103 (2006) 4499-504.
Prior to treatment, paper disks 30 were weighed. Treatments and controls were held in complete darkness at approximately 26±1° C. and 69±1% RH. The inhibitor concentrations tested were 75, 50, 25, 10, 5, 1, 0.5, and 0.1 mM (approximately […] wt/wt). For each inhibitor, paper disks were treated with 50 μl of a given concentration. Control disks received 50 μl methanol alone. Treated papers were allowed to dry in a fume hood for 30 min before placing in dishes, wetting with 25 μl water, and adding 15 termites.
Termite feeding on the filter papers was readily observable and quantifiable from the bioassays. Average feeding through the entire bioassay was summed within each replicate and calculated as a percentage of feeding relative to untreated controls, then averaged across replicates.
The experimental design consisted of three replicate dishes per concentration. All assays were carried out for a total of 24 days. Termite mortality and filter paper moisture were monitored every 4th day. Every 8th day, old paper disks were replaced with new ones. These new filter paper disks were treated with identical inhibitor concentrations. The removed filter paper disks 30, showing the results of termite feeding (FIG. 6), were dried and re-weighed. At the end of each assay, data were summarized as cumulative feeding per live termite and cumulative termite mortality. Data were analyzed by non-parametric t-tests (p<0.05) with commercially-available software for use in statistical analysis, designed by SAS Institute, Cary, N.C.
FIGS. 7A-7F provide graphic data on in vivo feeding bioassays conducted with the carbohydrate-based cellulase inhibitors to assess the impact on termite feeding and survivorship. Feeding results are expressed as the cumulative percent of untreated controls through 24 days. Mortality results are expressed as percent mortality after 24 days. […] Error bars represent standard error of the mean.

## OC[C@@H]1[C@@H](O[C@@H]2O[C@H](CO)[C@@H](O)[C@H](O)[C@H]2O)[C@H](O)[C@@H](O)c2nccn21 [CBI, cellobioimidazole]
0.1 mM test conc.
  Average Feeding in mg per Live Termite (std. err.) days 1-8: 0.44 (0.04) mg per Live Termite
  Average Feeding in mg per Live Termite (std. err.) days 9-16: 0.42 (0.11) mg per Live Termite
  Average Feeding in mg per Live Termite (std. err.) days 17-24: 0.45 (0.04) mg per Live Termite
  Normalized Avg. Totals: 1.98
0.5 mM test conc.
  Average Feeding in mg per Live Termite (std. err.) days 1-8: 0.45 (0.03) mg per Live Termite
  Average Feeding in mg per Live Termite (std. err.) days 9-16: 0.51 (0.06) mg per Live Termite
  Average Feeding in mg per Live Termite (std. err.) days 17-24: 0.33 (0.04) mg per Live Termite
  Normalized Avg. Totals: 1.02
1 mM test conc.
  Average Feeding in mg per Live Termite (std. err.) days 1-8: 0.49 (0.12) mg per Live Termite
  Average Feeding in mg per Live Termite (std. err.) days 9-16: 0.53 (0.03) mg per Live Termite
  Average Feeding in mg per Live Termite (std. err.) days 17-24: 0.35 (0.04) mg per Live Termite
  Normalized Avg. Totals: 1.05
5 mM test conc.
  Average Feeding in mg per Live Termite (std. err.) days 1-8: 0.66 (0.05) mg per Live Termite
  Average Feeding in mg per Live Termite (std. err.) days 9-16: 0.55 (0.11) mg per Live Termite
  Average Feeding in mg per Live Termite (std. err.) days 17-24: 0.40 (0.89) mg per Live Termite
  Normalized Avg. Totals: 1.34
10 mM test conc.
  Average Feeding in mg per Live Termite (std. err.) days 1-8: 0.38 (0.05) mg per Live Termite
  Average Feeding in mg per Live Termite (std. err.) days 9-16: 0.43 (0.05) mg per Live Termite
  Average Feeding in mg per Live Termite (std. err.) days 17-24: 0.33 (0.05) mg per Live Termite
  Normalized Avg. Totals: 1.03
25 mM test conc.
  Average Feeding in mg per Live Termite (std. err.) days 1-8: 0.23 (0.01) mg per Live Termite
  Average Feeding in mg per Live Termite (std. err.) days 9-16: 0.47 (0.44) mg per Live Termite
  Average Feeding in mg per Live Termite (std. err.) days 17-24: 0.39 (0.01) mg per Live Termite
  Normalized Avg. Totals: 0.95
50 mM test conc.
  Average Feeding in mg per Live Termite (std. err.) days 1-8: 0.17 (0.03) mg per Live Termite
  Average Feeding in mg per Live Termite (std. err.) days 9-16: 0.41 (0.05) mg per Live Termite
  Average Feeding in mg per Live Termite (std. err.) days 17-24: 0.38 (0.03) mg per Live Termite
  Normalized Avg. Totals: 0.85
0.05 and 0.2% concentrations, after 24 days, FIG. 10B
  highest mortality observed: around 20%
75 mM test conc.
  Average Feeding in mg per Live Termite (std. err.) days 1-8: 0.16 (0.01) mg per Live Termite
  Average Feeding in mg per Live Termite (std. err.) days 9-16: 0.24 (0.05) mg per Live Termite
  Average Feeding in mg per Live Termite (std. err.) days 17-24: 0.27 (0.01) mg per Live Termite
  Normalized Avg. Totals: 0.59
1-5 mM (0.05-0.2% wt/wt), after 24 days
  mortality: approximately 20%
Across tested concentrations 0.1-75 mM, FIGS. 7A-7C, 8A-8B
  Effect on feeding (cumulative percent of untreated controls through 24 days): both inhibitory and stimulatory effects, depending on concentration; also recorded: either inhibitory or stimulatory to feeding, depending on concentration
After 24 days, FIGS. 7D-7F, 10A-10B
  cumulative termite mortality (comparison between inhibitors): substantially greater than the mortality caused by FMG
One replicate of the 0.05% concentration, after 24 days
  mortality, one replicate: over 30%
